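96-well plates; 48 h exposure; 5 concentrations. Endpoints by linear interpolation between flanking doses. Not reached: highest tested concentration assigned. GI50 marks 50% less growth. The concentration for full growth arrest is given as TGI.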
How the values were obtained:
Assay in all cases: inhibition of tumour cell growth, NCI panel, 48 h
HOP-62 NSCLC = tested on: HOP-62 NSCLC
MOLT-4 leukemia = tested on: MOLT-4 leukemia
SN12C renal = tested on: SN12C renal
T-47D breast = tested on: T-47D breast
U251 CNS = tested on: U251 CNS
UACC-257 melanoma = tested on: UACC-257 melanoma
UO-31 renal = tested on: UO-31 renal
NCI-H522 lung = tested on: NCI-H522 lung

Row | SMILES | GI50 (HOP-62 NSCLC) [nM] | TGI (HOP-62 NSCLC) [µM] | GI50 (MOLT-4 leukemia) [nM] | TGI (MOLT-4 leukemia) [µM] | GI50 (SN12C renal) [nM] | TGI (SN12C renal) [µM] | GI50 (T-47D breast) [nM] | TGI (T-47D breast) [µM] | GI50 (U251 CNS) [nM] | TGI (U251 CNS) [µM] | GI50 (UACC-257 melanoma) [nM] | TGI (UACC-257 melanoma) [µM] | GI50 (UO-31 renal) [µM] | TGI (UO-31 renal) [µM] | TGI (NCI-H522 lung) [µM] | GI50 (NCI-H522 lung) [nM]
1 | C[C@@H](Oc1cc(-n2cnc3ccc(OC[C@@H](O)CO)cc32)sc1C(N)=O)c1ccccc1Cl | 110 | > 25 | 95 | 7.47 | 1080 | > 25 | 1220 | > 25 | 126 | > 25 | 291 | > 25 | 8.39 | > 25 |  | 
2 | O=[N+]([O-])c1cc2c([N+](=O)[O-])cccc2o1 |  | 37.2 |  |  |  | 27.9 |  | > 100 |  | > 100 |  | 21.8 |  | 3.98 | 1.92 | 
3 | COc1cc(/C=C2\C[C@H]3[C@@H]4CC=C5C[C@@H](OC(C)=O)CC[C@]5(C)[C@H]4CC[C@]3(C)[C@H]2OC(C)=O)ccc1OCCN1CCCC1 | 9430 | 20.5 | 10700 | > 50 | 7790 | 15.7 | 12400 | 32 |  |  | 10800 | 20.1 | 13.1 | 28.9 | > 50 | 18100
4 | O=C(O[C@H]1CCN2C[C@H]3C[C@H](CN4C(=O)CCC[C@H]34)[C@@H]2C1)c1ccc(O)cc1 |  | > 100 |  |  |  | > 100 |  | > 100 |  | > 100 |  | > 100 |  | > 100 | > 100 | 
5 | O=c1c(Cl)cc2nc3ccccc3sc-2c1Cl |  | 46.1 |  | > 100 |  | 31.9 |  | > 100 |  | 43.2 |  | 8.2 |  | 29.1 | 25.9 | 
6 | Cc1ccc(S(=O)(=O)N2CCc3ccc(O)c4c3C2Cc2ccc3c(c2-4)OCO3)cc1 (stereo unspecified) | 1890 | 27.9 | 2420 | 20.3 | 2320 | > 40 | 968 | 51 | 464 | 5.92 | 656 | 18.1 | 0.904 | 11.8 | 2.08 | 393
7 | CC1(C)N=C(N)N=C(N)N1c1cccc(Br)c1 | 777 | > 100 | 940 | > 100 | 4090 | > 100 | > 82700 | > 100 | 321 | > 100 | > 92400 | > 100 | 6.69 | > 100 | > 100 | 4290
8 | COc1cccc(Nc2nccc(-c3cnn4ncccc34)n2)c1 | 79.8 | 0.532 | 78 |  | 83.7 | > 25 | 77.6 | 0.428 | 55.3 | 9.24 | 56.3 | 0.16 | 0.0707 | 0.21 | 0.767 | 122
9 | O=C(/C=C/OC(=O)c1cccc(Cl)c1)c1ccc(Cl)cc1 | > 100000 | > 100 | 31800 | > 78.6 | 28500 | > 100 | > 48800 | > 100 | 38100 | > 100 | 97600 | > 100 | > 100 | > 100 | > 100 | > 93300
10 | [CH3][Sn]([CH3])([CH3])[O][N+](=O)[O-] | 6410 | > 10 | 3200 | > 10 | 1780 | 4.11 | 4090 | > 10 | 1450 | 2.77 | 6810 | > 10 | > 10 | > 10 | 3.07 | 1640
11 | CN1CCN(Cc2ccc(NC(=O)c3cncc(C#Cc4cnc(N)c5cnccc45)c3)cc2C(F)(F)F)CC1 | 233 | 4.32 | 172 | 7.49 | 167 | 5.86 | 410 | 9.13 | 209 | 7.62 | 161 | 1.45 | 0.42 | 1.31 | 9.45 | 226
12 | C=C1C(=O)O[C@H]2[C@H]1CC/C(COC(=O)NCCCCCCCCNC(=O)OC/C1=C/CC[C@@]3(C)O[C@H]3[C@H]3OC(=O)C(=C)[C@@H]3CC1)=C\CC[C@@]1(C)O[C@@H]21 | 1530 | 3.49 | 330 | 1.18 | 264 | 0.849 | 323 | 0.915 | 578 | 2 | 848 | 2.82 | 0.88 | 2.17 | 0.407 | 186
